Molecules are shown by their SMILES.

For experiment [1], the system named is Alternaria alternata SDH-mutants. The note with it: boscalid-resistant isolates carrying SDH- mutations; in vitro; cited from earlier work.
The subject of experiment [2] is Corynespora cassiicola (CORYCA). The experiment in a line: In vitro microtiter plate assay, mycelial growth determined photometrically at 620nm. Format: cell-based. The note with it: 400 spores&mycelia / well; for after 3 days EC50 [ppm]: 3 days after inoculation; for after 5 days EC50 [ppm]: 5 days after inoculation; for after 7 days EC50 [ppm]: 7 days after inoculation. Here is the method: (§1) In Vitro-activity against various strains of Corynespora cassiicola and Botrytis cinerea resistant to SDHIs
Pathogen: Corynespora cassiicola (CORYCA) originating from cucurbits in Florida (US) • 1. sensitive strain (S011/12) • 2. resistant strain S1 • 3. resistant strain S2
Spores and mycelia of isolates of Corynespora cassiicola used in the microtiter plate assays were received from four weeks old cultures grown on PDA at 20 °C under black light. Spores and mycelia in steril water were used to inoculate the growth medium with 400 spores/mycelia per well. In the microtiter plate assay potato dextrose broth (PDB) was used as growth medium containing 25 mg/L Enrofloxacin. All isolates were tested with the following concentrations of boscalid and compound (1-1): 0 (control) 0.0064, 0.032, 0.16, 0.8, 4, 20 and 100 ppm. 96-well microplates were prepared in the following way: at first, 10 µl methanol (80 %) containing the amount of active ingredient required per concentration, was added to the cavities. After evaporation of the solvent and one day prior to inoculation, 140 ul growth medium was added to each well and the plate was stirred for at least two hours on a shaker. Then, 60 ul of the spore suspension, prepared as described above, were given into each cavity. The plates were incubated at 300 rpm on a shaker for 7 days at 24°C. Mycelia growth was determined photometrically at 620nm, three, five and seven days after inoculation. EC50 values were calculated according to the extinction values.

For experiment [3], the system named is Botrytis cinerea (BOTRCI). Described as above. It is filed as cell-based. The note with it: succinate medium; for after 4 days EC50 [ppm]: 4 days after inoculation; for after 6 days EC50 [ppm]: 6 days after inoculation. As to the method: as §1
Pathogen: Botrytis cinerea (BOTRCI) sampled in European vineyards • 1. sensitive strain B047 • 2. resistant strain B 1 • 3. resistant strain B2 • 4. resistant strain B3 • 5. resistant strain B4 • 6. resistant strain B5 • 7. resistant strain B6
Conidia of isolates of Botrytis cinerea included in the microtiter plate assay were received from cultures grown at 20°C under black light for eight days. Conidia in steril water were used to inoculate the growth medium with 20.000 spores/well. Liquid succinate medium + 40 mg/L Enrofloxacin were used as growth medium. All isolates were tested with the following concentrations of boscalid and compound (1-1): 0 (control) 0.00192, 0.0096, 0.048, 0.24, 1.2, 6 and 30 ppm. 96-well microplates were prepared in the following way: at first, 10 µl methanol (80 %) containing the amount of active ingredient required per concentration, was added to the cavities. After evaporation of the solvent and one day prior to inoculation, 100 ul growth medium was added to each well and the plate was stirred for at least two hours on a shaker. Then, 100 ul of the spore suspension, prepared as described above, were given into each cavity. The plates were incubated at 300 rpm on a shaker for 6 days at 20°C. Mycelia growth was determined photometrically at 620nm, four and six days after inoculation. EC50 values were calculated according to the extinction values.

As to `CC(C)CC(C)c1sccc1NC(=O)c1cn(C)nc1C(F)(F)F` (stereo not drawn) [penthiopyrad], the mycelial growth result in experiment [1] was “not affected”.
With `O=C(Nc1ccccc1-c1ccc(Cl)cc1)c1cccnc1Cl` [Boscalid], the figures for the “after 3 days EC50 [ppm]” value in experiment [2] (isolate S011/12 (sensitive)), in experiment [2] (resistant strain S1) and in experiment [2] (resistant strain S2) were 0,519 ppm, greater than 100 ppm and greater than 100 ppm, respectively. Moreover, the “after 5 days EC50 [ppm]” value in experiment [2] (isolate S011/12 (sensitive)) was 1,387 ppm; in experiment [2] (resistant strain S1), greater than 100 ppm; in experiment [2] (resistant strain S2), greater than 100 ppm. Also, the “after 7 days EC50 [ppm]” value in experiment [2] (isolate S011/12 (sensitive)) was 1,225 ppm; in experiment [2] (resistant strain S1), greater than 100 ppm; in experiment [2] (resistant strain S2) it was greater than 100 ppm. Besides, the “after 4 days EC50 [ppm]” value in experiment [3] (resistant strain B1), in experiment [3] (resistant strain B2), in experiment [3] (resistant strain B3), in experiment [3] (resistant strain B4), in experiment [3] (resistant strain B5) and in experiment [3] (resistant strain B6) was greater than 30 ppm in each case. In addition, the “after 4 days EC50 [ppm]” value in experiment [3] (sensitive strain B047) is 0,286 ppm. The “after 6 days EC50 [ppm]” value in experiment [3] (resistant strain B1), in experiment [3] (resistant strain B2), in experiment [3] (resistant strain B3), in experiment [3] (resistant strain B4), in experiment [3] (resistant strain B5) and in experiment [3] (resistant strain B6) was greater than 30 ppm each time. For the same compound, the “after 6 days EC50 [ppm]” value in experiment [3] (sensitive strain B047) was 0,317 ppm.
With `COC(c1ccc(Cl)cc1Cl)C(C)NC(=O)c1cn(C)nc1C(F)F` (stereo not drawn) [Compound (1-1), 3-difluoromethyl-1-methyl-1H-pyrazole-4-carboxylic acid [2-(2,4-dichlorophenyl)-2-methoxy-1-methyl-ethyl]-amide], the “after 3 days EC50 [ppm]” value in experiment [2] (isolate S011/12 (sensitive)) is given as 0,106 ppm; in experiment [2] (resistant strain S1) it was 1,204 ppm; in experiment [2] (resistant strain S2), 2,583 ppm. The “after 5 days EC50 [ppm]” value in experiment [2] (isolate S011/12 (sensitive)) is given as 0,368 ppm; in experiment [2] (resistant strain S1), 1,971 ppm; in experiment [2] (resistant strain S2) it was 7,653 ppm. Moreover, the “after 7 days EC50 [ppm]” value is given as 0,341 ppm in experiment [2] (isolate S011/12 (sensitive)), 1,635 ppm in experiment [2] (resistant strain S1) and 10,162 ppm in experiment [2] (resistant strain S2). For the same compound, the “after 4 days EC50 [ppm]” value in experiment [3] (resistant strain B1) is given as 4,449 ppm; in experiment [3] (resistant strain B2), 2,759 ppm; in experiment [3] (resistant strain B3), 1,762 ppm; in experiment [3] (resistant strain B4), 2,166 ppm; in experiment [3] (resistant strain B5), 14,663 ppm; in experiment [3] (resistant strain B6), 0,875 ppm. Moreover, the “after 4 days EC50 [ppm]” value in experiment [3] (sensitive strain B047) is reported as 0,288 ppm. For the same compound, the “after 6 days EC50 [ppm]” value in experiment [3] (resistant strain B1) was 6,467 ppm; in experiment [3] (resistant strain B2) it was 3,073 ppm; in experiment [3] (resistant strain B3), 1,798 ppm; in experiment [3] (resistant strain B4), 1,905 ppm; in experiment [3] (resistant strain B5), 18,965 ppm; in experiment [3] (resistant strain B6), 1,390 ppm. In addition, the “after 6 days EC50 [ppm]” value in experiment [3] (sensitive strain B047) is 0,290 ppm.
`O=C(NCCc1ncc(C(F)(F)F)cc1Cl)c1ccccc1C(F)(F)F` [fluopyram]: the mycelial growth result in experiment [1] is “strongly inhibited”.

Source of the values: EP2719280A1, “Use of N-phenylethylpyrazole carboxamide derivatives or salts thereof for resistance management of phytopathogenic fungi” (priority 2012, dated 2014).
